Measurements: patent US20110003847A1, “Prasugrel Salts with Improved Properties” (HELM AG, priority 2008, published 2011)
Counter-ions that a name gives are not always drawn.

Key:
[1] = Hygroscopicity of the salts; format: physicochemical
mammals = assay: Toxicity of prasugrel salts with regard to mammals; format: in vivo; details: compared with other salts
From the text: Although the exact reason for this low toxicity hat not yet been found, it is assumed that this effect is due to a different solubility of the salts. The toxicity and safety margin of prasugrel can be controlled by varying the solubility of its salts.

[2] = Corrosiveness of the salts; format: physicochemical
[3] = Storage of tablets at room temperature in an open container (discoloration); format: physicochemical; details: tablets stored 9 days at room temperature (15-25° C.) in an open container
Method: Tablets were stored for 9 days at room temperature (15-25° C.) in an open container.

| Compound | hygroscopicity [1] | toxicity (mammals) | corrosiveness [2] | discoloration of tablets on storage [3] |
| --- | --- | --- | --- | --- |
| Prasugrel-Besylate [prasugrel besylate] | not hygroscopic | very low toxicity | – | – |
| CC(=O)Oc1cc2c(s1)CCN(C(C(=O)C1CC1)c1ccccc1F)C2.O=S(=O)(O)c1ccc2ccccc2c1 (stereo not shown) [prasugrel napsylate, Prasugrel-2-Napsylate] | not hygroscopic | – | not corrosive | – |
| CC(=O)Oc1cc2c(s1)CCN(C(C(=O)C1CC1)c1ccccc1F)C2 (stereo not shown) [prasugrel-HCl, Prasugrel-Hydrochloride] | – | – | – | clear discoloration |
| CC(=O)Oc1cc2c(s1)CCN(C(C(=O)C1CC1)c1ccccc1F)C2.O=S(=O)(O)c1cccc2c(S(=O)(=O)O)cccc12 (stereo not shown) [prasugrel napadisylate, Prasugrel-1,5-Dinapsylate] | not hygroscopic | – | not corrosive | – |
